From article PMC11569205, “An allosteric inhibitor of RhoGAP class-IX myosins suppresses the metastatic features of cancer cells” (Nature Communications, 2024) come the findings set out here.

In assay [1] the target is T1, Ce myosin-9 (Caenorhabditis elegans, UniProt F0IWT2).
T1 construct: gene hum-7; motor domain construct
The assay can be described thus: NADH-coupled basal and actin-activated ATPase assay; in vitro actin motility. The format is biochemical. An excerpt: NADH-coupled basal and actin-activated ATPase assay; in vitro actin motility on Ce myosin-9 | Inhibitory effect of adhibin on Cemyosin-9 and Rnmyosin-9b basal and actin-activated ATPase activities.

For assay [2], the target named is T2, Rn myosin-9b (Myo9b) (Rattus norvegicus, UniProt Q63358).
T2 construct: motor domain construct
T2 sequence (Q63358 2-954): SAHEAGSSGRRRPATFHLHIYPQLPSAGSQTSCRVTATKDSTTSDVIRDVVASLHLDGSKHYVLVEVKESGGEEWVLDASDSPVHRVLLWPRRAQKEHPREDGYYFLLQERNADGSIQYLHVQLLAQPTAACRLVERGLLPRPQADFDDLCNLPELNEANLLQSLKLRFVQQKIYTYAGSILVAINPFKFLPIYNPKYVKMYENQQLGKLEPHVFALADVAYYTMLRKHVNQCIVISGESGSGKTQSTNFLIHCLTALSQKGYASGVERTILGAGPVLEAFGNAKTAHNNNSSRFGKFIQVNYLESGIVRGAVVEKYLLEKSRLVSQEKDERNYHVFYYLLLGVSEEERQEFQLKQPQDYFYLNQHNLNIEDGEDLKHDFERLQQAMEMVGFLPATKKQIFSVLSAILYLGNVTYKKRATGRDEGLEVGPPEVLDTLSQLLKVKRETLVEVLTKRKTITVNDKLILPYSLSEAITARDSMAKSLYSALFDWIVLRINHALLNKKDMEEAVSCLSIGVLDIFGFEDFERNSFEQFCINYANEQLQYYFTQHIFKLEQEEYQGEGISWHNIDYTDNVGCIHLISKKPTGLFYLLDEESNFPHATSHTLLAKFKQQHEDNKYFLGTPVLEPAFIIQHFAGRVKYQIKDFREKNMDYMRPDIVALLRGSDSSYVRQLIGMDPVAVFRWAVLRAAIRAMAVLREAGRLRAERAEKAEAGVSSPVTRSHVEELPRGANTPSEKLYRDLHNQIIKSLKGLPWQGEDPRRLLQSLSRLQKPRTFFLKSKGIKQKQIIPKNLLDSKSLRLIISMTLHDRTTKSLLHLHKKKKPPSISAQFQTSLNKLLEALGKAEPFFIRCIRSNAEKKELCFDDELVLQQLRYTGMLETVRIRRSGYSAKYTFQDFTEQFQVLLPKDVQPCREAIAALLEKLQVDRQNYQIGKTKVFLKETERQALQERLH
The assay can be described thus: NADH-coupled basal and actin-activated ATPase assay. Format: biochemical.

Assay [3] deals with T3, DdMyo5b (Dictyostelium discoideum, UniProt P54697).
T3 construct: gene myoJ; motor domain
T3 sequence (P54697 whole entry, the tested form may be a part): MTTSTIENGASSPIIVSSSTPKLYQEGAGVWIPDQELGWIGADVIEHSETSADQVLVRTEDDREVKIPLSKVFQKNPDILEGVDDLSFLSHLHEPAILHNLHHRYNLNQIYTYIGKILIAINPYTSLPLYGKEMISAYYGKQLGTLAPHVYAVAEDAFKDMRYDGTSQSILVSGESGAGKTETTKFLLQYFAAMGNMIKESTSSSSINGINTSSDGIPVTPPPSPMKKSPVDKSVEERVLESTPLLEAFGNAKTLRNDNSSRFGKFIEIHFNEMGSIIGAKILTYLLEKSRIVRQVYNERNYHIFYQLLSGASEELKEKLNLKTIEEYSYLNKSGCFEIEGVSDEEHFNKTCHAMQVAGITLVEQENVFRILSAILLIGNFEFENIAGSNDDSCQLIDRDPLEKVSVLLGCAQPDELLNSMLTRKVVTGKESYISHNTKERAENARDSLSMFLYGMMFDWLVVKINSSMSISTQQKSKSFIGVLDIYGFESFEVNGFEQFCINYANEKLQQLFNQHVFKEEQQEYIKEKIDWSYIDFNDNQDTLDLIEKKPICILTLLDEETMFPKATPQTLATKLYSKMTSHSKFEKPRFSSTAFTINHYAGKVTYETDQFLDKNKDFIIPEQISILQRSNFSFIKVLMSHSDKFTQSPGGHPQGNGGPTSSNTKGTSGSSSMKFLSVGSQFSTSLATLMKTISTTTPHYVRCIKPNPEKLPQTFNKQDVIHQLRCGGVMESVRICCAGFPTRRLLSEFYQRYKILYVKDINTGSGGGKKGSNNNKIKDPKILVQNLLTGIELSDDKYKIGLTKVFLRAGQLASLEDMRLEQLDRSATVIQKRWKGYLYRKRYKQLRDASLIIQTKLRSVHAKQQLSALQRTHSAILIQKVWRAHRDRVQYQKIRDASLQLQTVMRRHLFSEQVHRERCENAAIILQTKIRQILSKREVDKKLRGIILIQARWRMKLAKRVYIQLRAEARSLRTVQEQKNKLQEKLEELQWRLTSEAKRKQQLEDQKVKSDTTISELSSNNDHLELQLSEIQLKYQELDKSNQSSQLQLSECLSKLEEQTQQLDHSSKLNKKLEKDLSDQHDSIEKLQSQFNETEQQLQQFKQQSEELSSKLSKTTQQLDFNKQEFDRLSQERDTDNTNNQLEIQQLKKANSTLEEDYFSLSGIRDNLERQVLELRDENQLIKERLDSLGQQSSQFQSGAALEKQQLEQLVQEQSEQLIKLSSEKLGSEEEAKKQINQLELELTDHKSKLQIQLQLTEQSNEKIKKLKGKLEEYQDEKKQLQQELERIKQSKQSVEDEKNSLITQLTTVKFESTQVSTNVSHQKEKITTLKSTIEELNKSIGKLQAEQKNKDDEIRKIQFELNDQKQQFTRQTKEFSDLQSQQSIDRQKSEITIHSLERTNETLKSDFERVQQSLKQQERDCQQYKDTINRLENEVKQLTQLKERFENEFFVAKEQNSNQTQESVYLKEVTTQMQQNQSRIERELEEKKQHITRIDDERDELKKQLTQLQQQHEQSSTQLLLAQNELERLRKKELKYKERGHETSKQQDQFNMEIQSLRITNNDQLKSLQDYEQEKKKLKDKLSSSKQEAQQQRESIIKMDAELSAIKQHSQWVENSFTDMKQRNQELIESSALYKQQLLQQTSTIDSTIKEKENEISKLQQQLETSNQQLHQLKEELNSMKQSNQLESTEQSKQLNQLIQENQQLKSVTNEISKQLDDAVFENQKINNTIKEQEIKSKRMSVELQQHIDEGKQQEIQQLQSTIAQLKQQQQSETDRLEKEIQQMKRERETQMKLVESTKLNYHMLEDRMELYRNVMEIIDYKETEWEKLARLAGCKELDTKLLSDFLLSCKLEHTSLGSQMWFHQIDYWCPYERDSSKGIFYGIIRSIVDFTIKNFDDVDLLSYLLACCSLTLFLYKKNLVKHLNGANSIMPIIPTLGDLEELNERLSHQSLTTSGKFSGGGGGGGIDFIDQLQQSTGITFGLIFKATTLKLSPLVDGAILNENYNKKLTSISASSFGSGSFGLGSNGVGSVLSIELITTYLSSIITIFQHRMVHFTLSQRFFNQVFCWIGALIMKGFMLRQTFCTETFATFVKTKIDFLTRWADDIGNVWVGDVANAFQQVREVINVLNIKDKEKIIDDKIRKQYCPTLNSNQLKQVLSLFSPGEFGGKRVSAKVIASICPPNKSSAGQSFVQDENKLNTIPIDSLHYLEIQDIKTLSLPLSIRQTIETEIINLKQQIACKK
The experiment in a line: biochemical. Details: binding affinity of compound to purified myosin (technique not given in the excerpts). The text has this: (§1) Structural elements responsible for communicating conformational changes along the myosin ATPase cycle, such as the relay helix, the strut loop, and the W-helix, which form a central hub in the myosin motor domain for effective force production, flank the inhibitor binding site (Fig. 1K). The site buries a total protein surface area of 302.9 Å^2. This pocket is not visible in ligand-free DdMyo2 pre-power stroke structures and only formed by rearrangements of the side chains of residues S266 (β7-loop), E467 (relay helix), and K587 (strut) upon binding of the carbazole (Supplementary Fig. 1A). The aromatic carbazole moiety interacts primarily through hydrophobic contacts with F466 (relay helix) and V630 (W-helix), as well as cation-π interactions with K423 (O-helix) (Supplementary Fig. 1B). Four hydrogen bonds stabilize the inhibitor in its binding position: S465 (relay helix) and K587 (strut loop) interact with the hydroxy group of the ligand, and S465 (relay helix) and the main chain of E487 (relay helix) bind to the nitrogen of the carbazole framework. […] Rabbit fast skeletal muscle heavy meromyosin (skHMM) was prepared as described in ref. [129]. All other myosins were purified from native tissue or recombinant from the following organismal sources: D. discoideum (Dd), O. coniculus (Oc), S. scrofa (Ss), R. norvegicus (Rn), C. elegans (Ce), H. sapiens (Hs). Motor domain constructs of myosin-2, myosin-5a–5b, Ce myosin-9/Rn myosin-9b, were prepared as described previously in refs. [126],[130]–[135]. Hs nonmuscle myosin-2A (NM2a) was purified from SF9 cells using the baculovirus expression system as described in ref. [130] (for more information see Supplementary Table 5). F-actin was prepared according to the protocol by Lehrer and Kerwar[136].

Assay [4] has as its target T4, Dd myosin-2 (DdMyo2) (Dictyostelium discoideum, UniProt P08799).
T4 construct: gene mhcA; motor domain
T4 sequence (P08799 2-762): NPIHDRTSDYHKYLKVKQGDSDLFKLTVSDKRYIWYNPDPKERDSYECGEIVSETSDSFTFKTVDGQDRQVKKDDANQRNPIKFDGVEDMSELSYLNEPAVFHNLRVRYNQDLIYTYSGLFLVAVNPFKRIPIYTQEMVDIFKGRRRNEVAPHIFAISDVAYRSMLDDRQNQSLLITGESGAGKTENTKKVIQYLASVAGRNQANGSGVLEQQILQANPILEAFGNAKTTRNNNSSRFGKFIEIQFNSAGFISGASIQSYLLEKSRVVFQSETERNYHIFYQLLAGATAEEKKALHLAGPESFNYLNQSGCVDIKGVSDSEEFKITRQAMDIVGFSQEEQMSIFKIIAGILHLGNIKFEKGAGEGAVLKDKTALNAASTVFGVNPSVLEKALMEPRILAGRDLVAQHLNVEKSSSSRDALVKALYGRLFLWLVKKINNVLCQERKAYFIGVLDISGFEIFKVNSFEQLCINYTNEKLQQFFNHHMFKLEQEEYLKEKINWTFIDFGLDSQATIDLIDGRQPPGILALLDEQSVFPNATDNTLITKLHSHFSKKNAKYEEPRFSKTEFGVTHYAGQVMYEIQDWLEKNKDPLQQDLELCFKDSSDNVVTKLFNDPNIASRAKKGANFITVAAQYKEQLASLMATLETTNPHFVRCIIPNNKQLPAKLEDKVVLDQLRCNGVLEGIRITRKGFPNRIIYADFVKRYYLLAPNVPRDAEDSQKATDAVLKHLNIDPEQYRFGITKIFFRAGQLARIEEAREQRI
The assay can be described thus: biochemical. Details: binding affinity of compound to purified myosin (technique not given in the excerpts).
Description: as §1

The target of assay [5] is T4, Dd myosin-2 (DdMyo2). The assay can be described thus: biochemical. Details: inhibition of myosin ATPase activity. An excerpt:
(§2) We set out to identify a myosin class-IX specific inhibitor by screening an in-house compound library comprising halogenated pseudilins and carbazole derivatives, developed to target the ATPase activity of myosins[47],[48]. […] Low micromolar concentrations inhibited Myo9 motor function substantially, reducing sliding velocity and motile fraction of actin filaments in a reproducible and reversible manner (Fig. 1G, H). Importantly, the motor properties of other tested myosins remained unaffected (Fig. 1G). Rabbit fast skeletal muscle heavy meromyosin (skHMM) was prepared as described in ref. [129]. All other myosins were purified from native tissue or recombinant from the following organismal sources: D. discoideum (Dd), O. coniculus (Oc), S. scrofa (Ss), R. norvegicus (Rn), C. elegans (Ce), H. sapiens (Hs). Motor domain constructs of myosin-2, myosin-5a–5b, Ce myosin-9/Rn myosin-9b, were prepared as described previously in refs. [126],[130]–[135]. Hs nonmuscle myosin-2A (NM2a) was purified from SF9 cells using the baculovirus expression system as described in ref. [130] (for more information see Supplementary Table 5). F-actin was prepared according to the protocol by Lehrer and Kerwar[136].

Assay [6] addresses T2, Rn myosin-9b (Myo9b). The assay can be described thus: biochemical. Details: inhibition of myosin ATPase activity.
Description: as §2

What is called IC50 is the concentration that gives 50% inhibition. One may read the Kd as the free concentration of one partner at which half of the binding sites on the other are occupied at equilibrium, for simple one-to-one binding.

Read-outs that look alike come from different tables or passages of the source.

T1 sequence (F0IWT2 entry or part of it): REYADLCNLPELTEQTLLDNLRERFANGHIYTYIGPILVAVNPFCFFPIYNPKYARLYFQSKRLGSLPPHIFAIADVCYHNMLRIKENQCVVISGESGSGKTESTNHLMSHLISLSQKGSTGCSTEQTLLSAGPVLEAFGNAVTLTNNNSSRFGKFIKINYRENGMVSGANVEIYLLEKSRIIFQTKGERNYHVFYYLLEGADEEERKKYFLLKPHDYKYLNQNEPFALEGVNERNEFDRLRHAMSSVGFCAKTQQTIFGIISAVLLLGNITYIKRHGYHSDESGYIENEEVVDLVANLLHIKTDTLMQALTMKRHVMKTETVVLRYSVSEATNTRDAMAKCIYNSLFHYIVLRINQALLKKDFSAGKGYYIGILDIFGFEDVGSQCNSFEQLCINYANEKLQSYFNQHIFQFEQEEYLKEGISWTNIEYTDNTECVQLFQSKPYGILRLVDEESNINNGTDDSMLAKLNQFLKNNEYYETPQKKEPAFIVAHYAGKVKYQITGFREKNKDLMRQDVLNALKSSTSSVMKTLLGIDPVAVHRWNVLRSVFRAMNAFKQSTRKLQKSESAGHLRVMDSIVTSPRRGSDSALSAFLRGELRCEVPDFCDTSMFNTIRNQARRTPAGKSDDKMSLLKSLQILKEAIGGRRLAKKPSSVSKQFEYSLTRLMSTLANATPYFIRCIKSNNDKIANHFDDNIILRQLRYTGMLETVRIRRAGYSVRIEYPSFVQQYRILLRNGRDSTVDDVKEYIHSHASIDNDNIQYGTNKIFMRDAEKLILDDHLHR

Regarding `OCc1cc(Br)cc2c1[nH]c1ccc(Br)cc12` [compound 12, 3,6-dibromo-1-(hydroxymethyl)carbazole], the 50% inhibitory concentration (IC50) in assay [1] is 2.6 ± 0.2 µM; in assay [2], 2.5 ± 0.2 µM; in assay [5] (read-out: IC50), 37.7 ± 9.4 µM. The Kd worked out at 1.5 ± 0.5 µM in assay [3] (read-out: KD) and 14.9 ± 3.2 µM in assay [4] (read-out: KD).

Regarding `Cc1ccc2[nH]c3c(O)cc(Br)c(Br)c3c2c1` [compound 5, 3,4-dibromo-6-methyl-9H-carbazol-1-ol], the figures for the equilibrium dissociation constant (Kd) in assay [3] and in assay [4] were 33.2 ± 5.2 µM and 7.3 ± 4.1 µM, respectively. Also, the 50% inhibitory concentration (IC50) in assay [6] came to 2 ± 0.3 µM; in assay [5] it was 22.6 ± 7.5 µM.
